System: T1, CYP 3A4
T1 construct: liver microsomes from phenobarbitone-pretreated male rats
Experiment: fluorometric benzyloxyresorufin (BROD) assay in rat liver microsomes
Type: biochemical

C=C1[C@@H]2CC[C@H]3[C@]4(C)CCC[C@@](C)(C(=O)O)[C@H]4CC[C@]3(C2)[C@@H]1OC(C)=O [XA, xylopic acid]
IC50: 1300 ± 10 nM
